The results in this text go back to patent publication US11046716B2, “Beta-lactamase inhibitors” (priority 2015, dated 2021).

The target in one test is T1, SHV-5 (Klebsiella pneumoniae, UniProt P0A3M1).
T1 construct: made in house; host or cells: E. coli BL21(DE3)
Briefly: β-lactamase enzyme inhibition assay, SHV-5 (cefotaxime substrate). It counts as biochemical. As for the experimental part: (§1) For SHV-5, Kpc-2, p99AmpC and OXA-1 β-lactamases, E. coli BL21(DE3) bacterial cells carrying expression plasmids (expressed as native untagged proteins) for the individual β-lactamases were grown in 1 L of Superbroth (Teknova Inc. Hollister, Calif.) supplemented with 100 μg/ml kanamycin selection and 1×5052 (0.5% glycerol, 0.05% glucose and 0.2% α-lactose) at 35° C. for 18-20 hours. Cells were harvested by centrifugation (4,000×g, 4° C., 20 min), resuspended in 50 ml of 10 mM HEPES pH 7.5 ( 1/20 of the initial volume). The cells were lysed by sonication (5 pulses of 45 seconds) at 45 W on ice. The lysates were clarified by centrifugation at 10,000×g for 40 minutes at 4° C. Samples were diluted 5-fold in 50 mM sodium acetate pH 5.0, stored overnight at 4° C., after which they were centrifuged at 10,000×g for 30 minutes to clarify, and filtered through 0.45 μm filters. The samples were loaded onto a 5 ml Capto S sepharose cation exchange column (GE Healthcare) pre-equilibrated with 50 mM sodium acetate pH 5.0. The column was washed with 5 column volumes of 50 mM sodium acetate pH 5.0 to wash out unbound protein and a linear gradient of NaCl (0 to 500 mM) was used to elute the protein (over 16 CV) from the column. Fractions were assayed for β-lactamase activity using Centa (Calbiochem, Gibbstown, N.J.) or Nitrocefin (EMD Millipore chemicals, Darmstadt, Germany) as a reporter β-lactamase substrate for activity in the isolated fractions. Active fractions were pooled, concentrated and further purified by gel filtration chromatography on a Superdex 75 prep grade gel filtration column (GE Healthcare, Piscataway, N.J.) pre-equilibrated in 50 mM Hepes pH 7.5, 150 mM NaCl. Active fractions were pooled concentrated, quantitated by BCA protein determination (Thermo Scientific, Rockford, Ill.), dialyzed into PBS and frozen at −80° C. in 20% glycerol until use.
(§2) An equal volume of diluted enzyme stock was added, and the plates were incubated at 37° C. for 15 min. Nitrocefin was used as substrate for p99 AmpC, VIM-2 and OXA-1 and dispensed into each well at a final concentration of 100 μM. Absorbance at 486 nm was immediately monitored for 10 min using a Biotek Powerwave XS2 microplate spectrophotometer using the GEN5 software package (Biotek Instruments, Winooski Vt.). In an analogous fashion, imipenem was used as substrate for Kpc-2 and Cefotaxime was used for SHV-5, while changes in absorbance upon hydrolysis of the β-lactam ring were monitored at 300 nm and 260 nm respectively in UV-transparent 96-well microtiter assay plates. Maximum rates of hydrolysis were compared to those in control wells (without inhibitors), and percentages of enzyme inhibition were calculated for each concentration of inhibitor. The concentration of inhibitor needed to reduce the initial rate of hydrolysis of substrate by 50% (IC50) was calculated as the residual activity of β-lactamase at 486 nm using GraFit version 7 kinetics software package (Erithacus Software, Surrey, UK).
(§3) Using the methodology described above, examples of the current invention were evaluated for their ability to inhibit β-lactamase enzymes from all four Ambler classifications (A through D). […] NT=Not tested.

For the next test, the target named is T2, KPC-2 (Klebsiella pneumoniae, UniProt Q9F663).
T2 construct: made in house; host or cells: E. coli BL21(DE3)
Briefly: β-lactamase enzyme inhibition assay, KPC-2 (imipenem substrate). In kind it is biochemical. Particulars: Class A; imipenem substrate, 300 nm; read-out: KPC-2. As for the experimental part:
as §1, §2, §3

In a further test the target is T3, VIM-2 (Escherichia coli, UniProt Q5U7L7).
T3 construct: made in house; host or cells: E. coli BL21(DE3)
Briefly: β-lactamase enzyme inhibition assay, VIM-2 (nitrocefin substrate). In kind it is biochemical. Particulars: Class B; nitrocefin substrate, 486 nm; read-out: VIM-2. As for the experimental part: For Vim-2 metallo β-lactamase, the procedure was identical with the following exceptions, first the protein was not pH adjusted to pH 5 with 50 mM sodium acetate, second, the chromatography step was changed to a 5 ml Q sepharose anion exchange column pre-equilibrated with 50 mM Hepes pH 7.5, and elution of the protein was achieved by a linear gradient of NaCl (0-600 mM). Finally, the VIM-2 purification required a second run (3rd step) on the Q sepharose anion exchange column to achieve acceptable purity (>90%).
as §2, §3

The next test concerns the target T4, AmpC (Enterobacter cloacae, UniProt P05364).
T4 construct: made in house; host or cells: E. coli BL21(DE3)
Briefly: β-lactamase enzyme inhibition assay, p99 AmpC (nitrocefin substrate). In kind it is biochemical. How it is done:
as §1, §2, §3

The target of the next test is OXA-48 (UniProt Q6XEC0). Briefly: β-lactamase enzyme inhibition assay, Class D oxacillinase. It counts as biochemical. Particulars: read-out: OXA-48.
Test [1] deals with E. coli expressing the Class A Extended Spectrum Beta-Lactamase (ESBL) CTX-M-15. Briefly: Broth microdilution MIC assay with ceftazidime, E. coli CTX-M-15. It counts as cell-based. Particulars: Fixed CAZ (ceftazidime) 4 μg/mL; E. coli ESBL4 CTX-M-15. The text has this: (§4) To determine the ability of test compounds to potentiate the inhibition of the growth of bacterial strains that produce beta-lactamase enzymes in the presence of a β-lactam antibiotic, classic cell based broth microdilution MIC assays were employed. Six bacteria strains producing beta-lactamase enzymes were used: E. coli expressing the Class A Extended Spectrum Beta-Lactamase (ESBL) CTX-M-15, E. cloacae expressing the Class C P99, K. pneumoniae expressing the Class A carbapenemase KPC-2, P. aeruginosa expressing the Class B carbapenemase VIM-2, K. pneumoniae expressing the class A carbapenemase KPC-2 and the class B carbapenemase VIM-4, and K. pneumoniae producing the Class D carbapenemase OXA-48. The assay was conducted in Cation Adjusted Mueller Hinton Broth (CAMHB, BD #212322, BD Diagnostic Systems, Sparks, Md.). Bacteria strains were grown for 3-5 hours in CAMBH broth. Test compounds (Examples 1-94) were added to a microtiter plate in 2-fold serial dilutions in CAMHB in a final concentration range of 16 μg/mL to 0.125 μg/ml. An overlay of CAMHB containing a Beta-lactam was added to the compounds at a final static concentration of 4 μg/ml. […] In addition to the titration of test compounds the MICs of a panel of control beta-lactams is also tested to ensure the strains are behaving consistently from test to test. Once the test compound and antibiotics are added the plates can be inoculated according to CLSI broth microdilution method. After inoculation the plates are incubated for 16-20 hours at 37° C. then the Minimal Inhibitory Concentration (MIC) of the test compound is determined visually.
(§5) Using the methodology described above, examples of the current invention were evaluated for their ability to inhibit the growth of β-lactamase-producing bacteria in the presence of a β-lactam antibiotic.
A general note: Dilution methods test growth across graded concentrations, often in twofold steps.

Test [2] concerns K. pneumoniae expressing the Class A carbapenemase KPC-2. Briefly: Broth microdilution MIC assay with meropenem, K. pneumoniae KPC-2. In kind it is cell-based. Particulars: Fixed Mero (meropenem) 4 μg/mL; K. p. 156319 KPC-3.
Excerpt: as §4, §5

Test [3] has as its system P. aeruginosa expressing the Class B carbapenemase VIM-2. Briefly: Broth microdilution MIC assay with meropenem, P. aeruginosa VIM-2. In kind it is cell-based. Particulars: Fixed Mero (meropenem) 4 μg/mL; P. aerug. 2775 VIM-2.
Excerpt: as §4, §5

Test [4] has as its system K. pneumoniae expressing the class A carbapenemase KPC-2 and the class B carbapenemase VIM-4. Briefly: Broth microdilution MIC assay with meropenem, K. pneumoniae KPC-2 and VIM-4. Particulars: Fixed Mero (meropenem) 4 μg/mL; K. p. A-1797 KPC-2 VIM-4. It counts as cell-based.
Excerpt: as §4, §5

Test [5] relates to K. pneumoniae producing the Class D carbapenemase OXA-48. Briefly: Broth microdilution MIC assay with meropenem, K. pneumoniae OXA-48. In kind it is cell-based. Particulars: Fixed Mero (meropenem) 4 μg/mL; K. p. 11978 OXA-48.
Excerpt: as §4, §5

A value given as a limit tells only on which side of the number the result lay.

T1 sequence (P0A3M1 22-286): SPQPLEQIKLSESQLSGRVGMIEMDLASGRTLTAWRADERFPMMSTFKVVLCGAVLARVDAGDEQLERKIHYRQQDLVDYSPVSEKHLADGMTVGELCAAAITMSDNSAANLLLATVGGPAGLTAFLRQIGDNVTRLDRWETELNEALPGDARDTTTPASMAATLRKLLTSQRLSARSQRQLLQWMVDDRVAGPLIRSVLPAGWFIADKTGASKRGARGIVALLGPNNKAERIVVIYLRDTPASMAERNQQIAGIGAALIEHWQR
T2 sequence (Q9F663 25-293, looked up): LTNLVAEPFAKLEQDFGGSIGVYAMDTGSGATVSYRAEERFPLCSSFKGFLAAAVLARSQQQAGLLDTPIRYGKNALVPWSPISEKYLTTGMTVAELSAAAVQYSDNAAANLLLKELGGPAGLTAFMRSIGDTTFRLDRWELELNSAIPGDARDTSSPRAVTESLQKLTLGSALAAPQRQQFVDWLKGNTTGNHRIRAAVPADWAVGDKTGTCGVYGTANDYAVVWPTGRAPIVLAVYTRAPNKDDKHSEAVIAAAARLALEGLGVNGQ
T4 sequence (P05364 21-381): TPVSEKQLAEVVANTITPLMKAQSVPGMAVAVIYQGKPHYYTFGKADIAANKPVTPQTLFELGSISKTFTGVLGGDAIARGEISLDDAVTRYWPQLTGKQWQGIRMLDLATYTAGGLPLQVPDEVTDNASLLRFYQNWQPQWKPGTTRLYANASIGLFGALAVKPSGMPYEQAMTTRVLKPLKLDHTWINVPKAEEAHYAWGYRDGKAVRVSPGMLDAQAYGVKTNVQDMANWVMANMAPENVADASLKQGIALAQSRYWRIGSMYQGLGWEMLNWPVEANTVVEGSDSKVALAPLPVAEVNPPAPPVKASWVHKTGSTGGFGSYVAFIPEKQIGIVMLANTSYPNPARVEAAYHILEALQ

With `NCCc1cn(CC(=O)N[C@H]2Cc3cccc(C(=O)O)c3OB2O)nn1` [Example 6, (R)-3-(2-(4-(2-aminoethyl)-1H-1,2,3-triazol-1-yl)acetamido)-2-hydroxy-3,4-dihydro-2H-benzo[e][1,2]oxaborinine-8-carboxylic acid], the IC50 is 100 to 1000 nM against SHV-5; < 100 nM at KPC-2; 1000 to 10000 nM on VIM-2; < 100 nM on AmpC; 1000 to 10000 nM at OXA-48. Moreover, the “MIC (μg/mL) of Exemplary Compounds in presence of fixed β-lactams: E. coli ESBL4 CTX-M-15” value (from here on “MIC (μg/mL) … E. coli ESBL4 CTX-M-15”) in test [1] is “C (C represents an MIC of <1 μg/mL)”. Further, the “MIC (μg/mL) of Exemplary Compounds in presence of fixed β-lactams: K. p. 156319 KPC-3” value (shortened to “MIC (μg/mL) … K. p. 156319 KPC-3”) in test [2] is given as “C (C represents an MIC of <1 μg/mL)”. Moreover, in test [3], the “MIC (μg/mL) of Exemplary Compounds in presence of fixed β-lactams: P. aerug. 2775 VIM-2” value (“MIC (μg/mL) … P. aerug. 2775 VIM-2” below) is given as “C (C represents an MIC of <1 μg/mL)”. In addition, the “MIC (μg/mL) of Exemplary Compounds in presence of fixed β-lactams: K. p. A-1797 KPC-2 VIM-4” value (“MIC (μg/mL) … K. p. A-1797 KPC-2 VIM-4” below) in test [4] was “B (B represents an MIC between 1 and 16 μg/mL inclusive)”. The “MIC (μg/mL) of Exemplary Compounds in presence of fixed β-lactams: K. p. 11978 OXA-48” value (“MIC (μg/mL) … K. p. 11978 OXA-48” below) in test [5] was “B (B represents an MIC between 1 and 16 μg/mL inclusive)”.

On to `O=C(Cn1cc(CF)nn1)N[C@H]1Cc2cccc(C(=O)O)c2OB1O` [Example 111, (R)-3-(2-(4-(fluoromethyl)-1H-1,2,3-triazol-1-yl)acetamido)-2-hydroxy-3,4-dihydro-2H-benzo[e][1,2]oxaborinine-8-carboxylic acid], for which the IC50 against SHV-5 is < 100 nM; at KPC-2, < 100 nM; at VIM-2, 1000 to 10000 nM; at AmpC it was < 100 nM; at OXA-48, 100 to 1000 nM. The “MIC (μg/mL) … E. coli ESBL4 CTX-M-15” value in test [1] is given as “C (C represents an MIC of <1 μg/mL)”. In test [2], the “MIC (μg/mL) … K. p. 156319 KPC-3” value is “B (B represents an MIC between 1 and 16 μg/mL inclusive)”. Moreover, in [3], the “MIC (μg/mL) … P. aerug. 2775 VIM-2” value is “B (B represents an MIC between 1 and 16 μg/mL inclusive)”. The “MIC (μg/mL) … K. p. A-1797 KPC-2 VIM-4” value in [4] is “B (B represents an MIC between 1 and 16 μg/mL inclusive)”. Moreover, the “MIC (μg/mL) … K. p. 11978 OXA-48” value in test [5] is “B (B represents an MIC between 1 and 16 μg/mL inclusive)”.

Take `O=C(Cn1cc(CNCCCC(F)(F)F)nn1)N[C@H]1Cc2cccc(C(=O)O)c2OB1O` [Example 112, (R)-2-hydroxy-3-(2-(4-(((4,4,4-trifluorobutyl)amino)methyl)-1H-1,2,3-triazol-1-yl)acetamido)-3,4-dihydro-2H-benzo[e][1,2]oxaborinine-8-carboxylic acid]: the IC50 at SHV-5 is 100 to 1000 nM; at KPC-2, 100 to 1000 nM; at VIM-2 it was 100 to 1000 nM; at AmpC, < 100 nM; on OXA-48 it was 100 to 1000 nM. In addition, the “MIC (μg/mL) … E. coli ESBL4 CTX-M-15” value in test [1] is on record as “C (C represents an MIC of <1 μg/mL)”. Also, the “MIC (μg/mL) … K. p. 156319 KPC-3” value in test [2] was “B (B represents an MIC between 1 and 16 μg/mL inclusive)”. Further, in test [3], the “MIC (μg/mL) … P. aerug. 2775 VIM-2” value was “C (C represents an MIC of <1 μg/mL)”. For the same compound, in test [4], the “MIC (μg/mL) … K. p. A-1797 KPC-2 VIM-4” value was “B (B represents an MIC between 1 and 16 μg/mL inclusive)”. The “MIC (μg/mL) … K. p. 11978 OXA-48” value in test [5] is on record as “A (A represents an MIC>16 μg/mL)”.
